Like-named read-outs stand apart in the source and are kept apart here.
Legend:
[1] = tested on: IL-1β cytokine output from THP-1s; assay: THP-1 AlphaLISA IL-1β cytokine inhibition assay; type: cell-based
Summary of the method: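 IL-1β release by AlphaLISA, expressed as % inhibition against +/− LPS controls on each plate. Differentiation: PMA, 72 h. Sequence: 30 min compound pre-treatment, LPS 24 h, Nigericin 1 h before supernatant harvest, all at 37° C./5% CO2.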

[2] = tested on: IL-6 cytokine output from THP-1s; assay: THP-1 AlphaLISA IL-6 cytokine inhibition assay; type: cell-based
Summary of the method: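 THP-1 cells differentiated with PMA for 72 h, then pre-incubated with compound 30 min, stimulated with LPS 24 h, then Nigericin 1 h, all at 37° C. Supernatant IL-6 measured by AlphaLISA. Percentage inhibition normalized to +/− LPS plate controls.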

[3] = tested on: NRF2 (nuclear factor erythroid 2-related factor 2); assay: NRF2 +/-GSH activation assay (DiscoverX PathHunter NRF2 translocation kit, U2OS cells); type: cell-based
Summary of the method: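 Activation is expressed as percent of plate DMF (high) versus no-DMF (low) controls, from luminescence after 6 h compound exposure at 37 °C of U2OS PathHunter cells. The +GSH condition used compound pre-incubated 30 min in 6 mM working GSH; −GSH cells received compound directly.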

[4] = tested on: mouse cryopreserved hepatocytes; assay: Hepatocyte stability assay, mouse; type: in vitro ADME
Summary of the method: (§1)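 Thawed cryopreserved hepatocytes (viability >70%) at 0.5×10^6 cells/mL in Leibovitz buffer were preincubated at 37° C, then given 10 μM compound (0.1% DMSO) in duplicate. Samples at 0–60 min were quenched in acetonitrile and analysed by LC-MS/MS. Intrinsic clearance and half-life were derived from ln % remaining versus time.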

[5] = tested on: human cryopreserved hepatocytes; assay: Hepatocyte stability assay, human; type: in vitro ADME
Summary of the method: as §1

[6] = Hepatocyte stability assay, mouse; type: in vitro ADME; settings: mouse, hepatocytes; for hepatocyte CLint at 10 μM: Hepatocyte stability Clint; for half-life at 10 μM: Hepatocyte stability T½
Summary of the method: as §1

[7] = Hepatocyte stability assay, human; type: in vitro ADME; settings: human, hepatocytes; for hepatocyte CLint at 10 μM: Hepatocyte stability Clint; for half-life at 10 μM: Hepatocyte stability T½
Summary of the method: as §1

[8] = differentiated THP-1 cells, LPS then nigericin
[9] = +GSH, normalised to DMF high control
[10] = −GSH, normalised to DMF high control
[11] = Mouse hepatocytes, compound 10 μM, 0.5×10^6 cells/mL, 60 minutes (a n=2, b n=3)
[12] = Human hepatocytes, compound 10 μM, 0.5×10^6 cells/mL, 60 minutes (a n=2, c n=4)
[13] = Homo sapiens, THP-1, differentiated THP-1 cells, LPS then nigericin
[14] = Homo sapiens, THP-1, differentiated THP-1 cells, data from repeated experiments

Structure (SMILES)	NRF2 activation +GSH Emax [3, 9]	NRF2 activation −GSH Emax [3, 10]	IC50 [1, 13]	IC50 [2, 13]	hepatocyte CLint at 10 μM [6]	half-life at 10 μM [6]	hepatocyte CLint at 10 μM [7]	half-life at 10 μM [7]	also measured
C=C(CC(=O)OCCCCCCCC)C(=O)O [4-octyl itaconate, 4-Octyl itaconate, reference compound]	148%	165%							IC50 [1, 8]: 37.8 µM; IC50 [2, 8]: 19.1 µM; Hepatocyte stability Clint [4, 11]: 351 μL min^−1 10^−6 cells; Hepatocyte stability T½ [4, 11]: 4 min; Hepatocyte stability Clint [5, 12]: 401 μL min^−1 10^−6 cells; Hepatocyte stability T½ [5, 12]: 4 min
C=C(Cc1nc(CCCCCCCC)no1)C(=O)O [Example 1, 2-((3-octyl-1,2,4-oxadiazol-5-yl)methyl)acrylic acid]	187%	243%	4.9 µM	3.7 µM	118 µL/min/1e6 cells	12 min	115 µL/min/1e6 cells	12 min	IC50 ([1]; Homo sapiens, THP-1, Table 3, head to head comparison of exo vs endo double bond compounds): 4.9 µM; IC50 ([1]; Homo sapiens, THP-1, Table 3, data from repeated experiment): 4.7 µM; IC50 [1, 14]: 4.7 µM; reduction of cytokine release versus comparators, in words ([1]; compared with 4-octyl itaconate and 2-(2-chlorobenzyl)acrylic acid): reduced cytokine release more effectively than 4-octyl itaconate and 2-(2-chlorobenzyl)acrylic acid; IC50 [2, 14]: 4 µM; NRF2 activation, result in words ([3]; −GSH and/or +GSH): activated NRF2 more potently and with higher efficacy than 4-octyl itaconate and 2-(2-chlorobenzyl)acrylic acid; −GSH Emax ([3]; −GSH, normalised to DMF high control, Table 5 exo vs endo comparison): 243%; stability in mouse cryopreserved hepatocytes, in words ([4]; mouse, hepatocytes): improved stability; stability in human cryopreserved hepatocytes, in words ([5]; human, hepatocytes): improved stability
C=C(Cc1nc(-c2ccc(CCCCC(F)(F)F)cc2)no1)C(=O)O [Example 75, 2-((3-(4-(5,5,5-trifluoropentyl)phenyl)-1,2,4-oxadiazol-5-yl)methyl)acrylic acid]	188%	263%	13.7 µM	3.1 µM	480 µL/min/1e6 cells	4 min	80 µL/min/1e6 cells	15 min	EC50 ([3]; +GSH, 30 minute compound-GSH pre-incubation, read-out: NRF2 activation +GSH EC50): 7.1 µM; EC50 ([3]; −GSH, U2OS PathHunter cells, 6 hours compound treatment, read-out: NRF2 activation −GSH EC50): 4.8 µM
